Measured values taken from patent publication US12357598B2, “Treatment of neurodevelopmental disorders” (THE REGENTS OF THE UNIVERSITY OF CALIFORNIA, priority 2018, dated 2025).

Tests used:
ddY mice [1] = experiment: Oxylipin profiling of brain regions of juvenile offspring after prenatal poly(I:C) (MIA); format: in vivo, mouse; conditions: juvenile offspring (P28) after prenatal poly(I:C)
Protocol: Administration of poly(I:C) into pregnant mice. The schedule of poly(I:C) treatment was performed as reported previously (13,36-39). The pregnant mice were injected intraperitoneally (i.p.) for six consecutive days from E12 to E17 with poly(I:C) (5.0 mg/kg/day, Sigma-Aldrich Co. Ltd., St. Louis, MO, USA) dissolved in physiological saline, or an equivalent volume (5 ml/kg) of saline. The male offspring were separated from their mothers at wearing (P21), and mice were caged each three-five in the groups in clear polycarbonate cage (22.5×33.8×14.0 cm). Mice were housed under controlled temperatures and 12-hour light/dark cycles (lights on between 07:00-19:00 h), with ad libitum food and water.
Collection of brain samples and oxylipin profiling. The pregnant mice were injected i.p. with poly(I:C) (5.0 mg/kg/day for 6 days from E12 to E17) or saline, as described above. The male offspring were separated from their mothers at wearing (P21). On P28, mice were deeply anesthetized with isoflurane and brains were removed from the skulls. For Western blot analysis, brain regions such as prefrontal cortex (PFC), striatum, CA1, CA3 and dentate gyrus (DG) of the hippocampus were dissected from brain on ice using a Leica microscope S9E (Leica Microsystems, Tokyo, Japan). The samples were stored at −80° C. before assay. For oxylipin analysis, PFC, hippocampus, and cerebellum were dissected from brain on ice, and the samples were stored at −80° C. before assay. Measurement of eicosanoids was performed at UC Davis using the previous method (57).

ddY mice [2] = experiment: Measurement of NMDAR-related amino acids in plasma and brain after maternal glyphosate exposure; format: in vivo, mouse; conditions: juvenile offspring (P28)
Protocol: Measurement of amino acids. On P28, mice were deeply anesthetized with isoflurane and plasma was collected. Subsequently, prefrontal cortex (PFC), hippocampus and striatum were quickly dissected on ice from whole brain. The dissected tissues were weighed and stored at −80° C. until assayed. Levels of amino acids (glutamate, glutamine, glycine, L-serine, D-serine, GABA) were measured using high performance liquid chromatography system (Shimadzu Corporation, Kyoto, Japan), as reported previously (12,18,19).

polyriboinosinic-polyribocytidilic acid [Poly(I:C)]
5(6)-EpETrE level (ddY mice [1]; PFC): 222.07 ± 22.38 pmol/g tissue | 6-keto-PGF1α level (ddY mice [1]; PFC): 22.088 ± 1.785 pmol/g tissue | 8(9)-EpETrE level (ddY mice [1]; PFC): 6.725 ± 0.892 pmol/g tissue | 9(10)-EpOME level (ddY mice [1]; PFC): 2.695 ± 0.424 pmol/g tissue | 9,10,13-TriHOME level (ddY mice [1]; PFC): 22.676 ± 3.814 pmol/g tissue | 9,10-DiHOME level (ddY mice [1]; PFC): 1.069 ± 0.188 pmol/g tissue | 9,12,13-TriHOME level (ddY mice [1]; PFC): 39.728 ± 6.854 pmol/g tissue | 9-HODE level (ddY mice [1]; PFC): 24.253 ± 3.782 pmol/g tissue | 9-oxo-ODE level (ddY mice [1]; PFC): 15.032 ± 2.690 pmol/g tissue | 10(11)-EpDPE level (ddY mice [1]; PFC): 3.698 ± 0.292 pmol/g tissue | 11(12)-EpETrE level (ddY mice [1]; PFC): 26.639 ± 3.530 pmol/g tissue | 11-HETE level (ddY mice [1]; PFC): 72.292 ± 5.677 pmol/g tissue | 12(13)-EpOME level (ddY mice [1]; PFC): 2.934 ± 0.435 pmol/g tissue | 12,13-DiHOME level (ddY mice [1]; PFC): 4.640 ± 0.477 pmol/g tissue | 12-HETE level (ddY mice [1]; PFC): 28.597 ± 2.727 pmol/g tissue | 13-HODE level (ddY mice [1]; PFC): 31.020 ± 5.237 pmol/g tissue | 14(15)-EpETrE level (ddY mice [1]; PFC): 30.74 ± 5.605 pmol/g tissue | 15,16-DiHODE level (ddY mice [1]; PFC): 2.785 ± 0.414 pmol/g tissue | 15-HETE level (ddY mice [1]; PFC): 68.997 ± 4.672 pmol/g tissue | 19,20-DiHDPE level (ddY mice [1]; PFC): 4.319 ± 0.331 pmol/g tissue | EKODE level (ddY mice [1]; PFC): 6.552 ± 1.725 pmol/g tissue | PGD2 level (ddY mice [1]; PFC): 147.79 ± 9.748 pmol/g tissue | PGE2 level (ddY mice [1]; PFC): 16.359 ± 1.175 pmol/g tissue | PGF2a level (ddY mice [1]; PFC): 86.798 ± 6.454 pmol/g tissue | Thromboxane B2 level (ddY mice [1]; PFC): 43.922 ± 3.349 pmol/g tissue | 5(6)-EpETrE level (ddY mice [1]; cerebellum): 174.37 ± 11.71 pmol/g tissue | 6-keto-PGF1a level (ddY mice [1]; cerebellum): 29.69 ± 1.379 pmol/g tissue | 8(9)-EpETrE level (ddY mice [1]; cerebellum): 5.453 ± 0.582 pmol/g tissue | 9(10)-EpOME level (ddY mice [1]; cerebellum): 3.076 ± 0.662 pmol/g tissue | 9,10,13-TriHOME level (ddY mice [1]; cerebellum): 20.84 ± 3.099 pmol/g tissue | 9,10-DiHOME level (ddY mice [1]; cerebellum): 1.283 ± 0.279 pmol/g tissue | 9,12,13-TriHOME level (ddY mice [1]; cerebellum): 37.62 ± 5.925 pmol/g tissue | 9-HODE level (ddY mice [1]; cerebellum): 23.33 ± 2.571 pmol/g tissue | 9-oxo-ODE level (ddY mice [1]; cerebellum): 16.56 ± 2.802 pmol/g tissue | 10(11)-EpDPE level (ddY mice [1]; cerebellum): 6.061 ± 0.717 pmol/g tissue | 11(12)-EpETrE level (ddY mice [1]; cerebellum): 21.10 ± 1.869 pmol/g tissue | 12(13)-EpOME level (ddY mice [1]; cerebellum): 2.989 ± 0.423 pmol/g tissue | 12,13-DiHOME level (ddY mice [1]; cerebellum): 5.406 ± 0.682 pmol/g tissue | 13-HODE level (ddY mice [1]; cerebellum): 30.47 ± 4.048 pmol/g tissue | 14(15)-EpETrE level (ddY mice [1]; cerebellum): 26.63 ± 3.595 pmol/g tissue | 15,16-DiHODE level (ddY mice [1]; cerebellum): 2.772 ± 0.423 pmol/g tissue | 15-HETE level (ddY mice [1]; cerebellum): 36.59 ± 3.256 pmol/g tissue | 19,20-DiHDPE level (ddY mice [1]; cerebellum): 9.767 ± 0.858 pmol/g tissue | EKODE level (ddY mice [1]; cerebellum): 7.801 ± 1.325 pmol/g tissue | PGD2 level (ddY mice [1]; cerebellum): 21.60 ± 1.774 pmol/g tissue | PGE2 level (ddY mice [1]; cerebellum): 6.969 ± 0.684 pmol/g tissue | PGF2a level (ddY mice [1]; cerebellum): 46.32 ± 3.830 pmol/g tissue | TXB2 level (ddY mice [1]; cerebellum): 14.62 ± 0.876 pmol/g tissue | 12-HETE level (ddY mice [1]; cerebellum, first of two lines printed 12-HETE (r21)): 34.19 ± 3.215 pmol/g tissue | 12-HETE level (ddY mice [1]; cerebellum, second of two lines printed 12-HETE (r23)): 75.46 ± 28.38 pmol/g tissue | 5(6)-EpETrE level (ddY mice [1]; hippocampus): 333.09 ± 30.68 pmol/g tissue | 6-keto-PGF1α level (ddY mice [1]; hippocampus): 47.853 ± 3.589 pmol/g tissue | 8(9)-EpETrE level (ddY mice [1]; hippocampus): 10.53 ± 0.809 pmol/g tissue | 9(10)-EpOME level (ddY mice [1]; hippocampus): 3.933 ± 0.304 pmol/g tissue | 9,10,13-TriHOME level (ddY mice [1]; hippocampus): 31.142 ± 2.301 pmol/g tissue | 9,10-DiHOME level (ddY mice [1]; hippocampus): 0.814 ± 0.116 pmol/g tissue | 9,12,13-TriHOME level (ddY mice [1]; hippocampus): 54.137 ± 3.954 pmol/g tissue | 9-HODE level (ddY mice [1]; hippocampus): 34.887 ± 1.969 pmol/g tissue | 9-oxo-ODE level (ddY mice [1]; hippocampus): 24.50 ± 1.957 pmol/g tissue | 10(11)-EpDPE level (ddY mice [1]; hippocampus): 6.103 ± 0.347 pmol/g tissue | 11(12)-EpETrE level (ddY mice [1]; hippocampus): 42.05 ± 3.911 pmol/g tissue | 11-HETE level (ddY mice [1]; hippocampus): 106.263 ± 6.366 pmol/g tissue | 12(13)-EpOME level (ddY mice [1]; hippocampus): 4.641 ± 0.393 pmol/g tissue | 12,13-DiHOME level (ddY mice [1]; hippocampus): 4.478 ± 0.528 pmol/g tissue | 12-HETE level (ddY mice [1]; hippocampus): 83.22 ± 12.09 pmol/g tissue | 13-HODE level (ddY mice [1]; hippocampus): 41.916 ± 2.454 pmol/g tissue | 14(15)-EpETrE level (ddY mice [1]; hippocampus): 45.020 ± 3.734 pmol/g tissue | 15,16-DiHODE level (ddY mice [1]; hippocampus): 2.295 ± 0.364 pmol/g tissue | 15-HETE level (ddY mice [1]; hippocampus): 100.514 ± 6.210 pmol/g tissue | 19,20-DiHDPE level (ddY mice [1]; hippocampus): 4.228 ± 0.321 pmol/g tissue | EKODE level (ddY mice [1]; hippocampus): 14.86 ± 0.949 pmol/g tissue | PGD2 level (ddY mice [1]; hippocampus): 119.25 ± 8.999 pmol/g tissue | PGE2 level (ddY mice [1]; hippocampus): 20.186 ± 1.410 pmol/g tissue | PGF2a level (ddY mice [1]; hippocampus): 153.113 ± 10.00 pmol/g tissue | Thromboxane B2 level (ddY mice [1]; hippocampus): 65.491 ± 5.906 pmol/g tissue

O=C(O)CNCP(=O)(O)O [glyphosate]
D-Serine level (ddY mice [2]; PFC): 0.313 ± 0.010 nmol/mg tissue | GABA level (ddY mice [2]; PFC): 2.060 ± 0.058 nmol/mg tissue | Glutamate level (ddY mice [2]; PFC): 10.392 ± 0.377 nmol/mg tissue | Glutamine level (ddY mice [2]; PFC): 5.053 ± 0.243 nmol/mg tissue | Glycine level (ddY mice [2]; PFC): 0.705 ± 0.023 nmol/mg tissue | L-Serine level (ddY mice [2]; PFC): 0.622 ± 0.016 nmol/mg tissue | D-Serine level (ddY mice [2]; hippocampus): 0.259 ± 0.017 nmol/mg tissue | GABA level (ddY mice [2]; hippocampus): 2.469 ± 0.097 nmol/mg tissue | Glutamate level (ddY mice [2]; hippocampus): 9.350 ± 0.282 nmol/mg tissue | Glutamine level (ddY mice [2]; hippocampus): 4.765 ± 0.137 nmol/mg tissue | Glycine level (ddY mice [2]; hippocampus): 0.725 ± 0.030 nmol/mg tissue | L-Serine level (ddY mice [2]; hippocampus): 0.662 ± 0.037 nmol/mg tissue | D-Serine level (ddY mice [2]; plasma): 7.522 ± 0.578 nmol/mL | Glutamate level (ddY mice [2]; plasma): 38.003 ± 1.974 nmol/mL | Glutamine level (ddY mice [2]; plasma): 496.268 ± 15.748 nmol/mL | Glycine level (ddY mice [2]; plasma): 354.185 ± 9.806 nmol/mL | L-Serine level (ddY mice [2]; plasma): 144.824 ± 4.622 nmol/mL | D-Serine level (ddY mice [2]; striatum): 0.281 ± 0.010 nmol/mg tissue | GABA level (ddY mice [2]; striatum): 3.076 ± 0.151 nmol/mg tissue | Glutamate level (ddY mice [2]; striatum): 7.745 ± 0.141 nmol/mg tissue | Glutamine level (ddY mice [2]; striatum): 5.735 ± 0.319 nmol/mg tissue | Glycine level (ddY mice [2]; striatum): 0.755 ± 0.039 nmol/mg tissue | L-Serine level (ddY mice [2]; striatum): 0.715 ± 0.032 nmol/mg tissue
